{"source": "patent US8349553B2", "about": "“Jasmonate based assays for identifying compounds that selectively inhibit mitochondrial bound hexokinases” (Ramot at Tel Aviv University Ltd., priority 2007, dated 2013)", "key": {"[1]": {"tested_on": "CT26 cells transfected with pcDNA3-HKII or pcDNA3", "conditions": "CT26; 3.75 μM; 3 hours exposure", "protocol": "Cell death was determined by trypan blue exclusion. […] Alternatively, cytotoxicity was determined using hemacolor staining. Upon completion of a given experiment, cells were stained and the percentage of dead (detached) cells was determined spectrophotometrically.\nCT26 cells were transfected with pcDNA3-HKII or pcDNA3, using FuGene HD transfection reagent (Roche, Basel, Switzerland), according to the manufacturer's instruction followed by selection using G418.\nTo examine the effect of hexokinase over-expression on methyl jasmonate action, CT26 cells were transfected with plasmids, pcDNA3-HKII or pcDNA3, encoding for hexokinase II over-expression and a control plasmid, respectively (Zaid, 2005). Cells were seeded in 96-well plates and allowed to adhere. Cells were exposed to methyl jasmonate for 60 minutes prior to ATP determination (FIG. […] 9B)."}, "[2]": {"tested_on": "mitochondria-bound hexokinase (mitochondrial fraction from a CT-26 tumor)", "experiment": "Hexokinase detachment assay, mitochondrial fraction of CT-26 tumor", "type": "biochemical, murine", "conditions": "CT-26 tumor mitochondrial fraction; 30 minutes of incubation", "protocol": "Mitochondrial fraction was prepared by mechanical lysis and differential centrifugation. All stages were performed on ice. Cells or extracted tissues were washed with PBS and disrupted by homogenization in extraction buffer (Sucrose 250 mM, HEPES-NaOH 10 mM, pH 7.2) freshly supplemented with 0.1 mM EDTA and Protease Inhibitors cocktail (Sigma). For each gram of cells or tissue, 4 volumes of extraction buffer were applied. The homogenate volume was doubled with the extraction buffer, and tissue and cell debris as well as nuclei were pelleted by centrifugation of 1,000 g for 10 minutes. The supernatant was further spun at 13,000 g for 10 minutes twice. Endoplasmic reticulum layer was removed. The pellet, designated as the mitochondrial fraction, was suspended in the appropriate buffer, depending on the assay for which the mitochondrial fraction was prepared. Mitochondrial fractions were used immediately or stored at −196° C.\nTo determine the amount of hexokinase detached from the mitochondrial fraction by different agents, mitochondria were incubated with the agent of interest and pelleted by centrifugation. Activity of hexokinase in the supernatant (i.e., activity of the detached hexokinase) was determined spectrophotometrically at 340 nm. The reaction couples the ADP formation by hexokinase, consuming the ADP for pyruvate formation by pyruvate kinase, and reducing the pyruvate with NADH by lactate dehydrogenase. Briefly, mitochondria were suspended in incubation buffer (HEPES pH 7.4 20 mM, Sucrose 0.25M, Glucose 10 mM, KCl5 mM, MgCl2 10 mM; 0.2 mg/test, 100 μL/test) and incubated as described below. […]\nMethyl jasmonate perturbs mitochondria directly in a PTPC-dependent manner (Rotem, 2005). In order to determine whether methyl jasmonate is able to detach hexokinase from mitochondrial fraction isolated from CT-26 tumors, the activity of hexokinase in the supernatant of mitochondrial fraction treated for different time periods was measured. […] The activity of unbound hexokinase was measured and compared to the activity of spontaneously detached hexokinase (control)."}, "purified rat brain HKI": {"biological_target": "T1, purified rat brain HKI (Rattus norvegicus, UniProt P05708)", "T1 construct": "from tissue; host or cells: rat brain mitochondria", "T1 sequence (P05708 whole entry)": "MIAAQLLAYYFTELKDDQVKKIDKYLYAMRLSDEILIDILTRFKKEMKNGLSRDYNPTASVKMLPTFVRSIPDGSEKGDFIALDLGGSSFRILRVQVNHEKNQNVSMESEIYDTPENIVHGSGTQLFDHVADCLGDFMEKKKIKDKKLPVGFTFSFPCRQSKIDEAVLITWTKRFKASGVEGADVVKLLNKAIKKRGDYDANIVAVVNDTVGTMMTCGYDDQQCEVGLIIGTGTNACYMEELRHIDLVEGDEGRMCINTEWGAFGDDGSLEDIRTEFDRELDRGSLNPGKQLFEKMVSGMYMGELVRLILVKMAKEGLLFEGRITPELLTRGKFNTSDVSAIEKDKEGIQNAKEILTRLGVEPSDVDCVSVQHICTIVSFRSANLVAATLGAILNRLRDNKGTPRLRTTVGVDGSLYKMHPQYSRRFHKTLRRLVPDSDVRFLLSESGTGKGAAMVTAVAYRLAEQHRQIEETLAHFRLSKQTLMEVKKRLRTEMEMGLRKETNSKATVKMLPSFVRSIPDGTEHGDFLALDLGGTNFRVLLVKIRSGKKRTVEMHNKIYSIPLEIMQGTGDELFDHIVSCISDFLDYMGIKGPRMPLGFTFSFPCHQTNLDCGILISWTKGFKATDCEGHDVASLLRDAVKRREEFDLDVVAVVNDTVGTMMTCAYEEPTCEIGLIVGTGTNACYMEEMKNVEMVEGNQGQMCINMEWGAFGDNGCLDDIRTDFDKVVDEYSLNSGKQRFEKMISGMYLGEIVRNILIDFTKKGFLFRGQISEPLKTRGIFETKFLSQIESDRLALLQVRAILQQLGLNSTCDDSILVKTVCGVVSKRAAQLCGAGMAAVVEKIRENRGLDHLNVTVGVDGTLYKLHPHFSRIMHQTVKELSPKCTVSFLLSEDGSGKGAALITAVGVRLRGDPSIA", "experiment": "Surface plasmon resonance analysis of jasmonate-HK interactions", "type": "binding", "conditions": "analyte injected at varying concentrations (MJ 0.375-6 mM); 25° C.", "protocol": "Rat brain HK-I was purified as following, crude brain mitochondria containing tightly bound HK-I were incubated with 1.2 mM glucose-6-phosphate and 0.5 mM K-EDTA to release the enzyme into the soluble fraction. Further purification of HK-I was achieved by affinity chromatography on Cibacron Blue-agarose (Pharmacia). The purified enzyme was concentrated and washed in 0.5 mM K-EDTA, 10 mM glucose, 1 mM dithiothreitol and 10 mM K-Hepes, pH 7.8, using an Amicon device and a 50,000 Da molecular mass cut-off membrane (Spectrum; type C). The concentrated enzyme (up to 1 mg/ml; 30-60 units/mg) was frozen in liquid nitrogen and stored at −80° C. until use (Azoulay-Zohar, 2004).\nSurface plasmon resonance (SPR) is an optical biosensor technique that measures molecular binding events at a metal surface by detecting changes in the local refractive index. SPR is the surface-sensitive technique ideal for studying interactions between immobilized biomolecules (ligands) and a solution-phase analyte. The biosensor response is directly proportional to the mass of the bound analyte. The advantage of SPR for investigation of small molecular weight analytes over conventional techniques such as fluorescence or enzyme-linked immunosorbent assay is detection of an analyte being label-free and direct, without the need for labeling of analyte or multistep detection protocols (sandwich assay). […]"}, "[3]": {"tested_on": "mitochondrial fraction of mouse brain", "experiment": "Mitochondrial swelling assay, mouse brain", "type": "biochemical", "conditions": "1 mM", "protocol": "(§1) Freshly isolated mitochondrial fraction was washed with extraction buffer to remove EDTA and resuspended in swelling buffer (Mannitol 220 mM, Sucrose 70 mM, Tris, pH 7.2, 150 mM, KH2PO4, pH 7.2, 0.2 mM; 0.2 mg in 100 μL) freshly supplemented with potassium succinate, pH 7.2, 5 mM. Every component was sodium-free. Optical density was monitored at the wave length of 540 nm for 2-5 minutes before the addition of the examined reagents, e.g. methyl jasmonate, and for additional 20 minutes afterwards.\n(§2) In order to examine the consistency of the relationship between the ability of methyl jasmonate to detach bound hexokinase and mitochondrial damage, methyl jasmonate was tested in mouse brain in comparison to mouse liver. The comparison was performed due to known differences of mitochondrial hexokinase content between mouse brain vs. its liver. It is well established in the art that brain mitochondrial fraction is rich in bound hexokinase, while liver mitochondrial fraction is essentially devoid of it (Wilson, 1995). […] Mitochondrial fractions were incubated for either 10, 30 or 60 minutes at 37° C. The activity of unbound hexokinase was measured and compared to the activity of spontaneously (control) detached hexokinase. Consequently, the ability of methyl jasmonate to induce swelling in mitochondrial fraction isolated from mouse brain and liver was tested."}, "[4]": {"tested_on": "mitochondrial fraction of mouse liver", "experiment": "Mitochondrial swelling assay, mouse liver", "type": "biochemical", "conditions": "1 mM", "protocol": "as §1, §2"}, "hexokinase": {"tested_on": "hexokinase", "experiment": "Hexokinase activity, agent added directly to the coupled assay mixture", "type": "biochemical", "conditions": "coupled pyruvate kinase/lactate dehydrogenase assay, 340 nm"}, "[5]": {"conditions": "Fingrut, 2002, 2005, Rotem; cited from earlier work"}}, "note": "Entries after “also recorded” stand apart in the source; their conditions may differ.", "data": [{"smiles": "CN[C@@H]1C[C@H]2O[C@@](C)([C@@H]1OC)n1c3ccccc3c3c4c(c5c6ccccc6n2c5c31)C(=O)NC4", "note": "[staurosporine]", "values": [{"measurement": "cytotoxicity (hemacolor), hexokinase II over-expressing vs. control cells", "setting": "[1]", "result": "similarly decreased by hexokinase II over-expression"}]}, {"smiles": "CC/C=C\\C[C@H]1C(=O)CC[C@@H]1CC(=O)O", "note": "[jasmonic acid]", "values": [{"measurement": "detachment of hexokinase (activity of unbound hexokinase compared to control), dose dependence", "setting": "[2]", "result": "did not show considerable detachment of hexokinase from mitochondrial fraction; also recorded: less effective than methyl jasmonate at detaching hexokinase from mitochondrial fraction"}, {"measurement": "binding to immobilized hexokinase (SPR)", "setting": "purified rat brain HKI", "result": "did not bind hexokinase at all"}, {"measurement": "mitochondrial swelling (optical density at 540 nm)", "setting": "[3]", "result": "to a marginal extent"}, {"measurement": "mitochondrial swelling (optical density at 540 nm)", "setting": "[4]", "result": "not in liver"}, {"measurement": "influence on hexokinase activity when added directly to the assay mixture", "setting": "hexokinase", "result": "neither methyl jasmonate nor jasmonic acid added directly to the assay mixture, influence hexokinase activity"}, {"measurement": "cytotoxicity relative to methyl jasmonate", "setting": "[5]", "result": "lower cytotoxicity than methyl jasmonate"}]}]}
